SMILES	melting point [°C]
Cn1cc(CS(C)(=O)=O)c(=O)c2sccc21	220 to 223
O=C1Nc2ccc(F)cc2C1c1ncnc2c1cnn2C1CCCCC1 (stereo not given)	282 to 286
O=c1cc(-c2ccc(O)cc2)oc2ccc(CO)cc12	246 to 247
Cc1nc(-n2ccc(OCCC3CC3)cc2=O)sc1C(=O)NCc1ccccc1	172 to 174
CCOC(=O)c1c(CN(CC)CC)nc2sc3c(c2c1-c1ccc(Cl)cc1)CCN(C(=O)c1ccccc1)C3	177 to 178
COc1ccc(C(=O)Cc2c(Cl)cncc2Cl)c2c(CC(=O)OCc3ccccc3)coc12	132 to 133
COc1c(F)cc2[nH]c(C)c(CC(=O)O)c2c1F	176 to 178
O=C1CCC(N2C(=O)c3cccc(NCc4cccs4)c3C2=O)C(=O)N1 (stereo not given)	223 to 225
COc1ccc(Cn2c3c(c4cc(F)cc(F)c42)CCCC3CC(=O)O)cc1 (stereo not given)	149 to 151
OC(c1ccc(F)cc1)(c1ncc[nH]1)c1ccc(Cl)cc1Cl (stereo not given)	194
O=CNc1cc(-c2ccc(Cl)cc2)n[nH]1	151
Brc1ccc2ccn(Cc3ccccc3)c2c1	85 to 88
COc1cc2nc(N3CCc4c(ncnc4N4CCOCC4)C3)[nH]c(=O)c2cc1OC	288 to 290
CCCC(=O)NCCc1c[nH]c2ccc(OCc3ccccc3)cc12	112 to 114
CN(C)N=Cc1cn(C)nc1-c1ccc([N+](=O)[O-])o1	164 to 165
CC(C)OP(=O)(/C=C/CCn1cnc2c(Cl)nc(N)nc21)OC(C)C	150
CC(C)(C)OC(=O)CC1(C(=O)OCc2ccccc2)C(=O)N(Cc2ccc(Cl)c(Cl)c2)C(=O)c2cccn21 (stereo not given)	86 to 88
C=C(C(=O)c1c(OC)ccc(-c2cccs2)c1OC)c1ccc(C(=O)O)cc1	193 to 195
COC(=O)c1cccc(C2C(C#N)=C(N)Oc3c2ccc2cnccc32)c1 (stereo not given)	229 to 230
COc1cc(N)c(Cl)cc1Cn1nc(-c2ccc(C(F)(F)F)cc2)[nH]c1=O	> 270
O=C(O)CCc1cc(C(c2cc(F)ccc2F)S(=O)(=O)c2ccc(C(F)(F)F)cc2)c(Cl)cn1 (stereo not given)	166 to 167
Cn1cncc1C(O)(c1ccc(Cl)cc1)c1ccc2c(c1)c(-c1cccc(Cl)c1)nc1nnnn12 (stereo not given)	139
CCCCC1=NC2(CCCC2)C(=O)N1Cc1ccc(-c2ccccc2S(=O)(=O)Nc2noc(C)c2C)c(CO)c1	90 to 98
COc1cc(/C=C/C(=O)C#CCO)cc(OC)c1OC	113 to 115

SMILES	melting point [°C]
COCc1ccoc1C(=O)c1[nH]c2cc(Cl)ccc2c1CC(=O)O	212 to 213
COc1ccc(Cn2c3ccccc3c3c(N)c4c(nc32)CC(c2ccccc2)CC4=O)cc1 (stereo not given)	163 to 165
CC(C)(C)c1cc(CCc2ccccc2NC(=O)NCCc2ccc([N+](=O)[O-])cc2)cc(C(C)(C)C)c1O	134 to 136
CCOC(=O)c1c(-c2ccccc2)c(-c2ccc(F)cc2)c(C=O)n1C(C)C	88 to 90
Cc1cc(-c2cc(C(F)(F)F)n3ncc(-c4ccnc(CO)c4)c3n2)ccc1Cl	220
CC(C)[Si](C)(C)CCSCCCNC(=O)n1cc(F)c(=O)[nH]c1=O	122 to 123
Cc1nc2cc(Sc3cccc4cnccc34)c([N+](=O)[O-])cc2s1	217 to 220
Cn1ccnc1CNC(=O)c1[nH]c2ccc(Cl)cc2c1S(=O)(=O)c1cccc(Cl)c1	232 to 234
c1ccc2cc(CSCc3ccc4ccccc4c3)ccc2c1	119 to 121
CC(C)NS(=O)(=O)c1cc(Br)cc(Br)c1	105 to 107
O=C(O)c1ccc(N2C3CCC2CN(CC(=O)N2CC=C(c4cccc5ccsc45)CC2)C3)nc1	121 to 122
O=S(=O)(NCc1ccc(Cl)cc1)c1cc(Cl)c2cccnc2c1O	189 to 190
CCCNC(=O)N1CCc2cc(S(=O)(=O)N3CC(c4ccccc4)NC3=O)ccc21 (stereo not given)	197 to 199
CC(C)n1nc(-c2c(OC3CCC3)nc(N)nc2-c2ccccc2)ccc1=O	161 to 162
Clc1ccc2nc(NCC3CCN(CC4COc5ccccc5O4)CC3)sc2c1 (stereo not given)	156
N#Cc1c2c(n(Cc3ccccc3)c1N)CCCC2	128 to 130
CC1(C)CCCC(C)(C)N1Cc1ccc2cc(NC(=O)N3CCC(c4ccc(Cl)cc4)CC3)ccc2n1	203 to 204
Cc1c(C)c2ccc(OCCCCCc3ccccc3)cc2oc1=O	101
N#Cc1c(N2CCc3ccccc3CC2)nc(N)n(N)c1=O	> 200
CC(=O)c1ccc(CC2SC(=O)NC2=O)cc1 (stereo not given)	171 to 172
C#Cc1ccc(Nc2c(C(=O)c3nccs3)ccc(F)c2F)c(F)c1	161
CC(C(=O)c1ccccc1)=C1CCCN1	91 to 92
COC(=O)CCC(=O)c1ccc(OC)c(CCl)c1	78 to 80
CCOCC(=O)OC1(C(=O)CO)CCC2C3CCC4=CC(=O)CCC4(C)C3C(O)CC21C (stereo not given)	161

SMILES	melting point [°C]
O=C(O)c1ccc2cnn(C3CCCC3)c2c1	172 to 175
CC(C)(C)N[C@@H]1CCc2c(ccc(OCc3ccccc3)c2C#N)[C@H]1O (relative stereo)	120 to 122
CCc1nc2c([nH]1)C(=O)N1CCN=C1N2Cc1ccc(Cl)cc1	278 to 279
O=C(O)c1ccc(NCC=C(c2ccc(Cl)cc2)c2ccc(Cl)cc2)cc1	231 to 235
CN(CCCCN1C(=O)C=CC1=O)c1ccccc1	66 to 67
O=C(O)c1ccc(C(=O)c2ccc(Br)cc2)cc1	270 to 271
O=[N+]([O-])c1ccc(-c2ncnn2-c2ccc(Br)cc2)cc1	142 to 144
COc1cc(CCc2ccc(N)nn2)cc(OC)c1OC	130 to 132
COc1cc(N)c(Cl)cc1C(=O)N(C)OC	134 to 135
Cc1cc(-c2nnn(C)n2)cc(C)c1OCCCC(O)c1cc2cccnc2[nH]1 (stereo not given)	166 to 169
Cc1cccc(N2CCN(CCc3ccc(-c4cccc(N)n4)cc3)CC2)c1	158 to 160
O=C(c1cc2ccnc(Cl)c2[nH]1)N1CCSCC1	62 to 72
COC(=O)C(c1cccc(Br)c1)c1ncnc2cc(OC)c(OC)cc12 (stereo not given)	167 to 168
CCCn1c(=O)c2c(nc(C=Cc3cc(OC)c(OC)cc3S(=O)(=O)Nc3ccccc3)n2C)n(CCC)c1=O	247 to 249
CCOC(=O)C(=O)Nc1cc(C#N)c(C#N)cc1[N+](=O)[O-]	140 to 141
Cc1ccc(C(=O)Cn2c(=O)sc3ccccc32)cc1	168 to 170
C=CCn1c(SCCF)n[nH]c1=O	65
CCOC(=O)c1cc(=O)c2c(OCC(O)COc3cccc4occc(=O)c34)cccc2o1 (stereo not given)	155 to 159
CN1CN=C2C=C(Nc3ccc(I)cc3F)C(F)(C(N)=O)C=C21 (stereo not given)	265 to 268
C=C(C)C1CCC2(C(=O)O)CCC3(C)C(CCC4C5(C)CCC(O)C(C)(CO)C5CCC43C)C12 (stereo not given)	258 to 259
CCn1cc(C(=O)O)c(=O)c2cc(F)c(N3CCN(C)C(c4ccc(C)s4)C3)cc21 (stereo not given)	224
N#Cc1c(N)ncc2c1-c1ccccc1C(c1ccc(Cl)cc1Cl)C2 (stereo not given)	282 to 284
